# US11026910B2, “α- and γ-truxillic acid derivatives and pharmaceutical compositions thereof” (The Research Foundation for The State University of New York, priority 2012, dated 2021)
# “Also recorded” adds a separate entry of the source.
# Columns and labels:
# rat FAAH = target: T1, rat FAAH (Rattus norvegicus, UniProt P97612); assay: FAAH enzyme assay, hydrolysis of [14C]AEA in HeLa homogenates; assay type: biochemical; details: FAAH-transfected HeLa homogenates
# T1 construct: expressed in transfected cells; host or cells: HeLa
# T1 sequence (P97612 1-579): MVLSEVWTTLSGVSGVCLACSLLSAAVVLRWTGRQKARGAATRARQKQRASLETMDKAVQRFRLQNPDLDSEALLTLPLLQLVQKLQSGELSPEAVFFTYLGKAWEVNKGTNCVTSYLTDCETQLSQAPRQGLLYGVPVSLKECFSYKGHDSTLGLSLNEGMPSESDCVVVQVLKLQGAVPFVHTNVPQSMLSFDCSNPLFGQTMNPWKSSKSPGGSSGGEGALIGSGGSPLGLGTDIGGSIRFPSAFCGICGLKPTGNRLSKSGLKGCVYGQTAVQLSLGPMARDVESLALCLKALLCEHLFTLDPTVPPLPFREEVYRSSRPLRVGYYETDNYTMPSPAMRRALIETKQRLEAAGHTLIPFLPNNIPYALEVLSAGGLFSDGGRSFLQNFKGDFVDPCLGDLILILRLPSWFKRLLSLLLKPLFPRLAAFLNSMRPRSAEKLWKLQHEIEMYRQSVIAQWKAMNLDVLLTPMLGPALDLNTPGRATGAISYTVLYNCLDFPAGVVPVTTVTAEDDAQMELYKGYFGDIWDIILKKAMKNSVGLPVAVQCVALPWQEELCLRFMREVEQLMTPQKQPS
# male C57Bl6 mice = assay: Carrageenan-induced paw edema and thermal hyperalgesia; assay type: in vivo
# Protocol: We used male C57Bl6 mice (22-30 g, Taconic Farms) for all experiments. The animals were group housed at room temperature and kept on a 12:12 hour light:dark cycle with ad libitum access to water and food. The animals were habituated to the experimental room for one week before testing. All experiments were approved by the Stony Brook University Institutional Animal Care and Use Committee. The experimenter was blinded to the treatment conditions of each animal.
# Paw edema was induced by injecting 1% λ-carrageenan (20 μl, in sterile saline) into the plantar surface of the left hind paw and a control solution of saline into the right hind paw using a 27 gauge needle. Paw diameters were measured before carrageenan injection and 4 hours after injection using digital electronic calipers (Fisher) and expressed to the nearest ±0.01 mm. […] The cannabinoid receptor antagonists, rimonabant and SR144528 (3 mg/kg, i.p.), in ethanol:emulphor:saline (1:1:18), were injected 15 min before the FABP inhibitor. Edema is reported as the change in paw diameter at 4 hr over the baseline. Changes in paw diameter of saline-injected contralateral paws were negligible. Thermal hyperalgesia measured the latency to withdraw the paw from a focused beam of radiant heat applied to the plantar surface of the hind paw using a Hargreaves plantar apparatus (Ugo Basile) set at an intensity of 3.0. For each mouse, the average latencies consisted of three trials spaced at least 5 minutes apart. The mice were habituated to the test chamber for 30 min. The cutoff time was set at 30 sec.
# Behavioral data are presented as means±S.E.M. for the vehicle and inhibitor-treated groups, each consisting of at least 6 animals. Statistical significance between vehicle and inhibitor groups was determined using unpaired t-tests or one-way ANOVA followed by Dunnett's post hoc analysis. In all cases, differences of p<0.05 were considered significant.
structure (smiles),measurement,setting,value
"O=C(O)[C@H]1[C@@H](c2ccccc2)[C@@H](C(=O)Oc2cccc3ccccc23)[C@@H]1c1ccccc1 (single isomer, unassigned) [Compound 26, α-2,4-diphenyl-cyclobutane-1,3-dicarboxylic Acid mono-(1-naphthol) Ester]",inhibition of FAAH (AEA hydrolysis),rat FAAH,does not inhibit
same,antinociceptive and anti-edematous effects after rimonabant and SR144528 pretreatment,"male C57Bl6 mice; 20 mg/kg i.p., antagonists 3 mg/kg i.p. 15 min before",completely reversed; also recorded: blocked
same,"carrageenan-induced paw edema, 24 hrs after inhibitor administration","male C57Bl6 mice; 20 mg/kg, i.p. (FIG. 16A)",reduced
same,"carrageenan-induced thermal hyperalgesia, 24 hrs after inhibitor administration","male C57Bl6 mice; 20 mg/kg, i.p. (FIG. 16A)",reduced
same,carrageenan-induced thermal hyperalgesia,"male C57Bl6 mice; 20 mg/kg, i.p., 45 min prior to carrageenan (FIG. 10B)",significantly reduced; also recorded: alleviates
same,carrageenan-induced paw edema,"male C57Bl6 mice; 20 mg/kg, i.p., paw diameter at 4 hr (FIG. 10C)",significantly reduced; also recorded: reduces
